Data on six compounds can be found in patent EP1501554B1, “BENZOTHIENYL ANALOGUE OF SOMATOSTATINE, SELECTIVE FOR CERTAIN SOMATOSTATIN RECEPTORS” (Advanced Accelerator Applications USA, Inc., priority 2002, dated 2003).

For experiment [1], the target named is T1, hsst 5 (Homo sapiens, UniProt P35346).
T1 construct: expressed in transfected cells
The experiment is described as follows: In vitro binding affinity, transfected cell lines, hsst 5. The settings on record: IC50±SEM; applicant's series, with own SS-28 reference.

The target of experiment [2] is T2, hsst 4 (Homo sapiens, UniProt P31391).
T2 construct: expressed in transfected cells
The experiment is described as follows: In vitro binding affinity, transfected cell lines, hsst 4. The conditions noted are these: IC50±SEM; applicant's series, with own SS-28 reference.

For experiment [3], the target named is T3, hsst 2 (Homo sapiens, UniProt P30874).
T3 construct: expressed in transfected cells
The experiment is described as follows: In vitro binding affinity, transfected cell lines, hsst 2. The settings on record: IC50±SEM; applicant's series, with own SS-28 reference.

For experiment [4], the target named is T4, hsst 3 (Homo sapiens, UniProt P32745).
T4 construct: expressed in transfected cells
The experiment is described as follows: In vitro binding affinity, transfected cell lines, hsst 3. The settings on record: IC50±SEM; applicant's series, with own SS-28 reference.

Experiment [5] has as its target T2, hsst 4. The conditions noted are these: IC50±SEM; published series (Reubi et al.), referenced to SS-28; cited from earlier work.
Experiment [6] deals with T3, hsst 2. The conditions noted are these: IC50±SEM; published series (Reubi et al.), referenced to SS-28; cited from earlier work.
For experiment [7], the target named is T1, hsst 5. The conditions noted are these: IC50±SEM; published series (Reubi et al.), referenced to SS-28; cited from earlier work.
For experiment [8], the target named is T4, hsst 3. The settings on record: IC50±SEM; published series (Reubi et al.), referenced to SS-28; cited from earlier work.

Like-named read-outs stand apart in the source and are kept apart here.

T4 sequence (P32745 whole entry): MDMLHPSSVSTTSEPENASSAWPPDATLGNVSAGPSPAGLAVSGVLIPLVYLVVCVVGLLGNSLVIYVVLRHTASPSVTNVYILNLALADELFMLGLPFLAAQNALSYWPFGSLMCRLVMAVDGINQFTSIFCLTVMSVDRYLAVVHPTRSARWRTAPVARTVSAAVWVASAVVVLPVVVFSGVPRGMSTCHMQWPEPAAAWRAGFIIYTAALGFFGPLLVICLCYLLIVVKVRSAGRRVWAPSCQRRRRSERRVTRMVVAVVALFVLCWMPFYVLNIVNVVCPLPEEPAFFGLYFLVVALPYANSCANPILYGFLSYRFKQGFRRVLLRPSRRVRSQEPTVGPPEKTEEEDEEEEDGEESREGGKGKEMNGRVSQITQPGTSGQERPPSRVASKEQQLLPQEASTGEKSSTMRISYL
T2 sequence (P31391 whole entry): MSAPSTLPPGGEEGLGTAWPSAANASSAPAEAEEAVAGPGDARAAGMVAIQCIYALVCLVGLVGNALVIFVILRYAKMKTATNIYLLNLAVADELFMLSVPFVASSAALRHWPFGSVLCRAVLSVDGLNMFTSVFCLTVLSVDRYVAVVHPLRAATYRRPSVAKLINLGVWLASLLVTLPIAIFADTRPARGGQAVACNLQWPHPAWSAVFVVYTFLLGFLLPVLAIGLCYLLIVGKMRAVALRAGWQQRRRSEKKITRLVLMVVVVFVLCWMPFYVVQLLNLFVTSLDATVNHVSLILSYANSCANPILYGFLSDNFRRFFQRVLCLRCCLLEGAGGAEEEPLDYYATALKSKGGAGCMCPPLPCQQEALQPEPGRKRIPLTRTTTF
T1 sequence (P35346 whole entry): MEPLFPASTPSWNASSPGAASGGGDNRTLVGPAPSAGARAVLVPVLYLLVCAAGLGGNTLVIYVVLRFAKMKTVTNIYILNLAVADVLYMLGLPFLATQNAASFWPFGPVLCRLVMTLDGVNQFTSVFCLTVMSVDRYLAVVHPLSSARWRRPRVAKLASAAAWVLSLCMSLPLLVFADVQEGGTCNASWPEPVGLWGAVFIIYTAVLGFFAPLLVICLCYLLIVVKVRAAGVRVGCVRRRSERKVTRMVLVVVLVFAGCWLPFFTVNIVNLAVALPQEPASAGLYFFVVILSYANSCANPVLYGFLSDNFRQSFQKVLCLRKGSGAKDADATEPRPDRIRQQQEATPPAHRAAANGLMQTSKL
T3 sequence (P30874 whole entry): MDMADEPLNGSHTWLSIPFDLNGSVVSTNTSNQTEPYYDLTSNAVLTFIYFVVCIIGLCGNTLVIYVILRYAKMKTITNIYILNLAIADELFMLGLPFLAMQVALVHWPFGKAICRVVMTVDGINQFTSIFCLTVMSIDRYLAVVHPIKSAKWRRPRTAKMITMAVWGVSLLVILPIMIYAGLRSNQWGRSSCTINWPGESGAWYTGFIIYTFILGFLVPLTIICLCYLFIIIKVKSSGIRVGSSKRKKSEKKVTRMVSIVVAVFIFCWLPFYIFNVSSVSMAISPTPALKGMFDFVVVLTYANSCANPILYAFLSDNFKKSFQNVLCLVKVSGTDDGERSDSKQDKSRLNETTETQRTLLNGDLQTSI

Regarding `C[C@@H](O)[C@H](NC(=O)[C@@H]1CSSC[C@H](NC(=O)[C@H](N)Cc2ccccc2)C(=O)N[C@@H](Cc2csc3ccccc23)C(=O)N[C@H](Cc2c[nH]c3ccccc23)C(=O)N[C@@H](CCCCN)C(=O)N[C@@H]([C@@H](C)O)C(=O)N1)C(=O)O` [compound 13, H-(D)Phe-cyclo[Cys-3-benzothienylalanyl-(D)Trp-Lys-Thr-Cys]-Thr-OH], the IC50 on hsst 5 [1] stood at 2.1 nM; at hsst 4 [2] it was 60 nM; at hsst 2 [3], 0.43 nM; at hsst 3 [4], 27 nM.
For the compound `C[C@@H](O)[C@@H]1NC(=O)[C@H](CCCCN)NC(=O)[C@@H](Cc2c[nH]c3ccccc23)NC(=O)[C@H](Cc2cccc3ccccc23)NC(=O)[C@@H](NC(=O)[C@@H](Cc2ccccc2)NC(=O)CN2CCN(CC(=O)O)CCN(CC(=O)O)CCN(CC(=O)O)CC2)CSSC[C@@H](C(=O)N[C@H](CO)[C@@H](C)O)NC1=O` [cpd. 8, Y-DOTA-[1-Nal^3]-OC], the IC50 on hsst 5 [1] is 10 ± 1.6 nM; on hsst 4 [2], > 1000 nM; on hsst 2 [3], 3.3 ± 0.2 nM; at hsst 3 [4] it was 26 ± 1.9 nM.
Taken in the same sequence, the figures for `C[C@@H](O)[C@H](NC(=O)[C@@H]1CSSC[C@H](NC(=O)[C@@H](Cc2ccccc2)NC(=O)CN2CCN(CC(=O)O)CCN(CC(=O)O)CCN(CC(=O)O)CC2)C(=O)N[C@@H](Cc2csc3ccccc23)C(=O)N[C@H](Cc2c[nH]c3ccccc23)C(=O)N[C@@H](CCCCN)C(=O)N[C@@H]([C@@H](C)O)C(=O)N1)C(=O)O` [cpd. 11, ^111In-labelled DOTA-(D)Phe-cyclo[Cys-3-benzothienylalanyl-(D)Trp-Lys-Thr-Cys]Thr-OH, metal not drawn] were 4 nM, 110 nM, 1.1 nM and 7 nM.
Regarding Y-DOTA-LAN [cpd. 5], the IC50 on hsst 4 [5] was > 1000 nM; at hsst 2 [6], 23 ± 5 nM; at hsst 5 [7], 16 ± 3.4 nM; at hsst 3 [8], 290 ± 105 nM.
On to Y-DOTA-OC [compound 4], for which the IC50 was > 1000 nM on hsst 4 [5] and 20 ± 2 nM on hsst 2 [6].
On to Y-DOTA-TOC [cpd. 6], for which the IC50 on hsst 4 [5] was > 10000 nM; on hsst 2 [6], 11 ± 1.7 nM.
